Laboratory results taken from patent US8062859B2, “Method for screening anticancer substances, set or kit for implementing said method” (Centre National de la Recherche Scientifique (CNRS), priority 2005, dated 2011).

Legend:
Assay type in all cases: cell-based
[1] = test system: SW620 metastatic cell line; experiment: Spreading ability of the cells (flat versus round phenotype)
Procedure: FIG. 2 illustrates the effect of the treatment of metastatic cells of the SW620 cell line by the inhibitor Y-27632 on the spreading ability of the cells (FIG. 2A) and on the formation of E-cadherin type adhesion junctions (FIG. 2B). In FIGS. 2 A and 2 B: on the left: control cells without inhibitor; on the right: cells incubated with Y-27632. On the x-axis: the percentage of flat cells (FIG. 2A) or the percentage of cells forming E-cadherin type intercellular junctions (FIG. 2B). 2—Place the cells in 0% Serum for 18 to 24 hours then treat them or not with Y27 10 μM+PDGF 5 ng/ml for 36 to 48 h.

[2] = test system: SW620 metastatic cell line; experiment: Formation of E-cadherin type intercellular junctions (immunofluorescent labelling of E-cadherin)
Procedure: (§1) 1. Protocol for Immunofluorescent Labelling of e-Cadherin 1—The cells are plated in 6-well plates, each well containing 3 glass coverslips 10 mm in diameter. 2—Place the cells in 0% Serum for 18 to 24 hours then treat them or not with Y27 10 μM+PDGF 5 ng/ml for 36 to 48 h. 3—Fix the cells for 10 minutes with formalin (3.7% formaldehyde in PBS). 4—Saturation, 10 minutes PBS-BSA 5—Incubation of the primary antibody, diluted to 1:500 in PBS-BSA, 2 hours at 37° C. (Mouse anti E-cadherin, ZYMED, ref: 13-1700) 6—2 rapid washes in PBS-0.1% Tween 7—Incubation of the secondary antibody (Alexa Fluor® 488 F(ab′)2 fragment of goat anti mouse IgG, Molecular Probes ref: A-11017), diluted to 1:2000 in PBS-BSA, 30 minutes at 37° C. 8—2 rapid washes in PBS-0.1% Tween 9—Mounting in Mowiol medium between the slide and the coverslip.

[3] = test system: SW620 metastatic cell line; experiment: Invasion test (Matrigel, FluoroBlock inserts)
Procedure: 2. Invasion Test 1—On D-2, thaw the Matrigel at 4° C. all night 2—On D-1 measure the Matrigel into insert chambers: Put all the necessary material on ice (Matrigel, culture medium, tips, eppendorfs, etc. . . . ). Put the FluoroBlock inserts (FALCON, ref: 351152) in the 24-well plates (FALCON, ref: 353504). Dilute the Matrigel to 2 mg/ml in cold serumless medium (if the cells are to be subjected to a treatment X, include the product in the Matrigel, e.g.: Y 27632) Aliquot 100 μl of 2 mg/ml Matrigel per insert avoiding creating bubbles. Leave O/N at 37° C. in a humid atmosphere (in an incubator) 3—On D day, plate the cells on the Matrigel: First put 700 μl of 10% serum medium in a 24-well plate and transfer the inserts to this plate. Trypsinate the cells (previously treated or not . . . ) and take them up in 2% serum medium. Plate 50 000 cells per insert in 200 μl of 2% serum medium on the Matrigel (optionally put Y27632 into the plated cells). 4—The migration time varies depending on the cell type but generally allowing them to migrate for 8 hours fixing a point every 2 hours seems suitable. To fix them, transfer the inserts to a 24-well plate containing 1 ml of formalin (3.7% formaldehyde in PBS), suck up the culture medium inside the chambers and also add formalin (very important, prevents the cells from continuing to migrate in the Matrigel). […] Read the OD at 490 nm.

[4] = test system: CoLo205 metastatic cell line; experiment: Localisation of E-cadherin at intercellular junctions (immunofluorescent labelling); conditions: CoLo205, Y-27632 10 μM for 48 hours, FIG. 1
Procedure: as §1

[5] = test system: SKCo-1 metastatic cell line; experiment: as above; conditions: SKCo-1, Y-27632 10 μM for 48 hours, FIG. 1
Procedure: as §1

SMILES: C[C@@H](N)[C@H]1CC[C@H](C(=O)Nc2ccncc2)CC1 [Y-27632]
- percentage of flat cells ([1]; SW620 cells after treatment with Y-27632, FIG. 2A (control 30%)): 90%
- percentage of cells retaining a round phenotype ([1]; SW620 cells after treatment with Y-27632, FIG. 2A (control 70%)): 10%
- spreading ability of the cells (in words) ([1]; SW620 cells, FIG. 2A): enhances the spreading ability
- location of E-cadherin at the junctions (in words) ([2]; SW620, Y-27632 10 μM for 48 hours, FIG. 1): causes correct relocation of E-cadherin at the junctions
- percentage of cells capable of forming E-cadherin type junctions ([2]; SW620 cells after treatment with Y-27632, FIG. 2B (control 22%)): 52%
- formation of E-cadherin dependent junctions (in words) ([2]; SW620 cells, FIG. 1B and FIG. 2B): enhances
- level of invasion, compared with CoN normal colon cells (in words) ([3]; SW620 cells after treatment with Y-27632, FIG. 3B): very low level of invasion, comparable to that of CoN normal colon cells
- invasive capacity (in words) ([3]; SW620 cells treated with Y-27632, FIG. 3B): drastically reduce their invasive capacity
- location of E-cadherin at the junctions (in words) [4]: causes correct relocation of E-cadherin at the junctions
- location of E-cadherin at the junctions (in words) [5]: causes correct relocation of E-cadherin at the junctions
